Test results as given in ChEMBL document CHEMBL4368853 (Medchemcomm, 2018).

Key:
[1] = target: T1, Bromodomain-containing protein 4 (Homo sapiens, UniProt O60885); assay: Inhibition of acetyl-histone H4 peptide binding to His6-tagged BRD4 (1 to 477 residues) (unknown origin) after 35 mins by TR-FRET assay
[2] = target: T1, Bromodomain-containing protein 4; assay: Inhibition of His6-tagged BRD4 (1 to 477 residues) (unknown origin) after 1 hr by Alexa fluor 488-conjugated probe based fluorescence anisotropy
[3] = target: Bromodomain-containing protein 4 (Homo sapiens, UniProt O60885, Y97A); assay: Inhibition of recombinant human N-terminal His6-tagged BRD4 Y97A mutant (1 to 477 residues) expressed in Escherichia coli after 30 mins by Alexa Fluor647 conjugated probe based TR-FRET assay
[4] = target: T1, Bromodomain-containing protein 4; assay: Binding affinity to human partial length BRD4 bromodomain 1 long isoform (N44 to E168 residues) expressed in bacterial expression system by BROMOscan assay
[5] = target: T1, Bromodomain-containing protein 4; assay: Inhibition of acetylated biotin-labelled RHGSGSK binding to N-terminal His6-tagged BRD4 bromodomain 1 (67 to 152 residues) (unknown origin) expressed in Escherichia coli after 1 hr by TR-FRET assay
[6] = target: T1, Bromodomain-containing protein 4; assay: Inhibition of acetylated biotin-labelled RHGSGSK binding to BRD4 bromodomain 2 (unknown origin) after 1 hr by TR-FRET assay
[7] = target: T1, Bromodomain-containing protein 4; assay: Inhibition of biotin-labelled histone peptide binding to His-tagged BRD4 (unknown origin) expressed in Escherichia coli after 30 mins by TR-FRET assay
[8] = target: T1, Bromodomain-containing protein 4; assay: Inhibition of BRD4 in human MM1S cells assessed as down regulation of c-Myc expression after 1 hr by Western blot analysis
[9] = target: T1, Bromodomain-containing protein 4
Description: Inhibition of biotinylated Acetyl-Histone H4 (Lys5, 8, 12, 16) peptide binding to GST-tagged BRD4 bromodomain 1 (44 to 168 residues) (unknown origin) after 30 mins by Alphascreen method

[10] = target: T1, Bromodomain-containing protein 4; assay: Inhibition of biotinylated Acetyl-Histone H4 (Lys5, 8, […], […]) peptide binding to GST-tagged BRD4 bromodomain 2 (333 to 460 residues) (unknown origin) after 30 mins by Alphascreen method
[11] = system: MX1; assay: Antiproliferative activity against human MX1 cells; type: functional, cell-based
[12] = target: T1, Bromodomain-containing protein 4; assay: Inhibition of acetylated biotin-labelled RHGSGSK binding to N-terminal His6-tagged BRD4 bromodomain 1 (44 to 168 residues) (unknown origin) expressed in Escherichia coli after 1 hr by TR-FRET assay
[13] = system: MOLM-13; assay: Antiproliferative activity against human MOLM13 cells after 96 hrs by alamar blue assay; type: functional, cell-based; conditions: MOLM-13, 96 h
[14] = system: MV4-11; assay: Antiproliferative activity against human MV4-11 cells; type: functional, cell-based
[15] = target: T1, Bromodomain-containing protein 4; assay: Inhibition of biotin-labelled tetra-acetylated histone peptide binding to recombinant human N-terminal His6-tagged BRD4 bromodomain 1 (1 to 477 residues) (unknown origin) expressed in Escherichia coli after 1 hr by TR-FRET assay
[16] = Oral bioavailability in dog; type: ADME, organism-based, Canis lupus familiaris; conditions: in vivo
[17] = system: CHP-212; assay: Antitumor activity against human CHP212 cells xenografted in Crl:CD-1-Foxn1 nude mouse assessed as tumor growth inhibition at 15 mg/kg, po administered once daily for 42 days relative to control; type: functional; conditions: CHP-212, po, 1008 h, read-out: TGI
[18] = Oral bioavailability in monkey; type: ADME, organism-based, Macaca mulatta; conditions: rhesus monkey, in vivo
[19] = system: MDA-MB-453; assay: Antiproliferative activity against human MDA-MB-453 cells; type: functional, cell-based
[20] = system: MDA-MB-453; assay: Antitumor activity against human MDA-MB-453 cells xenografted in SCID mouse assessed as tumor growth inhibition at 5 mg/kg, iv; conditions: MDA-MB-453, iv, read-out: TGI
[21] = target: T1, Bromodomain-containing protein 4; assay: Binding affinity to BRD4 bromodomain 1 (unknown origin) by isothermal titration calorimetry
[22] = system: HL-60; assay: Growth inhibition of human HL60 cells at 10 uM after 48 hrs by sulforhodamine B assay; type: functional; conditions: HL-60, 48 h, read-out: GI
[23] = target: T1, Bromodomain-containing protein 4; assay: Inhibition of recombinant human N-terminal His-tagged/C-terminal FLAG-tagged BRD4 bromodomain 1 (44 to 168 residues) expressed in Escherichia coli using histone peptide as substrate preincubated for 15 mins followed by substrate addition and measured after 60 mins
[24] = system: MV4-11; assay: Antiproliferative activity against human MV4-11 cells after 72 hrs by CellTiter-Glo assay; type: functional, cell-based; conditions: MV4-11, 72 h
[25] = target: T1, Bromodomain-containing protein 4; assay: Inhibition of His-tagged BRD4 bromodomain 2 (E352 to M457 residues) (unknown origin) by Alexa-647 conjugated probe based TR-FRET assay; type: single protein
[26] = system: OPM-2; assay: Antitumor activity against human OPM2 cells xenografted in SCID Beige mouse assessed as tumor growth inhibition at 5 mg/kg, po administered once daily for 21 days relative to control; type: functional; conditions: OPM-2, po, 504 h, read-out: TGI
[27] = system: MX1; assay: Antiproliferative activity against human MX1 cells after 72 hrs by CellTiter-Glo assay; type: functional, cell-based; conditions: MX1, 72 h
[28] = target: T1, Bromodomain-containing protein 4; assay: Inhibition of His-tagged BRD4 bromodomain 1 (K57 to E168 residues) (unknown origin) by Alexa-647 conjugated probe based TR-FRET assay; type: single protein
[29] = Induction of apoptosis in human Mino cells after 48 hrs by Annexin-V/propidium iodide staining based assay; type: functional, cell-based
[30] = system: VCaP; assay: Antitumor activity against human VCaP cells xenografted in mouse assessed as tumor growth inhibition at 30 mg/kg, sc administered once every 3 days for 15 days; conditions: 360 h, read-out: TGI
[31] = system: Z-138; assay: Induction of apoptosis in human ibrutinib-resistant Z138 cells after 48 hrs by Annexin-V/propidium iodide staining based assay; type: functional, cell-based; conditions: Z-138, 48 h
[32] = system: OPM-2; assay: Antitumor activity against human OPM2 cells xenografted in SCID Beige mouse assessed as tumor growth inhibition at 2.5 mg/kg, po administered once daily for 21 days relative to control; type: functional; conditions: OPM-2, po, 504 h, read-out: TGI
[33] = target: T1, Bromodomain-containing protein 4; assay: Inhibition of biotinylated histone H4 peptide binding to BRD4 bromodomain 1 (44 to 168 residues) (unknown origin) after 60 mins by Alphascreen method
[34] = target: T1, Bromodomain-containing protein 4; assay: Inhibition of biotinylated histone H4 peptide binding to BRD4 bromodomain 2 (333 to 460 residues) (unknown origin) after 60 mins by Alphascreen method
[35] = Oral bioavailability in rat; type: ADME, organism-based; conditions: in vivo
[36] = system: MOLM-13; assay: Antiproliferative activity against human MOLM13 cells; type: functional, cell-based
[37] = target: T1, Bromodomain-containing protein 4; assay: Inhibition of BRD4 bromodomain 2 (unknown origin)
[38] = target: T1, Bromodomain-containing protein 4; assay: Inhibition of BRD4 bromodomain 1 (unknown origin)
[39] = system: MV4-11; assay: Antitumor activity against human MV4-11 cells xenografted in po dosed mouse assessed as tumor regression administered once daily relative to control; type: functional
[40] = Antiproliferative activity against human CLL cells assessed as inhibition of CpG-induced cell proliferation treated for 4 hrs followed by compound washout for 44 to 48 hrs by MTS assay; type: functional, cell-based

CC(=O)N1CC(n2cc(C3CC3)c3c2C(c2ccc(Cl)cc2)N(c2cc(C)c4nnn(C)c4n2)C3=O)C1 (stereo not given)
IC50 [1]: < 11 nM

COc1cnc2c(ncc3[nH]c(=O)n(Cc4ccccc4OC(F)(F)F)c32)c1-c1c(C)noc1C
IC50 [2]: 158 nM

COc1cnc2c(ncc3[nH]c(=O)n(Cc4ccccc4)c32)c1-c1c(C)noc1C
IC50 [2]: 316 nM

CC(=O)N1c2ccc(-c3ccc(C#N)cc3)cc2[C@H](Nc2ncccc2F)[C@@H](C)[C@@H]1C1CC1
IC50 [3]: < 100 nM

Cc1sc2c(c1C)C(c1ccc(Cl)cc1)=N[C@@H](CC(=O)OCCCCCCO)c1nnc(C)n1-2
IC50 [4]: 0.43 nM

C[C@@H]1C(=O)N(C)c2ccc(-c3ccc(Nc4cccc(S(=O)(=O)N(C)C)c4)cc3)nc2N1C1CCN(C)CC1
IC50 [5]: 20 nM
IC50 [6]: 43 nM

COc1ccc2c(ncc3nc(N4CCOCC4)n([C@H](C)COC(F)F)c32)c1-c1c(C)noc1C
IC50 [7]: 10 nM

COc1nnc2ccc(N3CCC(c4ccc(OCCN5CCN(C)C(=O)[C@H]5C)cc4)CC3)nn12 [AZD-5153]
IC50 [8]: 5.4 nM

CCS(=O)(=O)Nc1ccc(Oc2ccc(F)cc2F)c(-c2cn(C)c(=O)c3[nH]c(C#CCN(C)C)cc23)c1
Ki [9]: 1.3 nM
Ki [10]: 3.3 nM
EC50 [11]: 9.4 nM

CCN1C(=O)C(C)(C)c2cc3nc(-c4cc(C)c(=O)n(C)c4)n([C@@H](C)c4ccccc4)c3cc21
IC50 [9]: 1.3 nM

COc1ccc2c(ncc3nc(C4CCC(F)(F)CC4)n([C@H](C)COC(F)F)c32)c1-c1c(C)noc1C
IC50 [7]: 10 to 21 nM

Cc1nnc(C[C@@H]2N=C(c3ccc(Cl)cc3)c3ccccc3-n3c(C)nnc32)o1
IC50 [12]: 20 nM
EC50 [13]: 140 nM

Cc1noc(C)c1-c1ccc2c(c1)C(C1CCCC1)(N1CCC[C@H](N)C1)C(=O)N2 (stereo not given in full)
IC50 [14]: 34 nM
IC50 [15]: 8 nM

CC(=O)N1c2ccc(-c3ccc(C(=O)O)cc3)cc2[C@H](Nc2ccc(Cl)cc2)C[C@@H]1C
bioavailability [16]: 80%
inhibition in vivo at 15 mg/kg [17]: 82%
bioavailability [18]: 100%

CCn1nc(C2CC2)cc1Nc1nc(C(=O)NCCCOCCOCCOCCCNc2cccc3c2CN(C2CCC(=O)NC2=O)C3=O)nc2[nH]c3cc(-c4c(C)noc4C)c(OC)cc3c12 (stereo not given)
IC50 [19]: < 10 nM
IC90 [19]: < 100 nM
inhibition in vivo at 5 mg/kg [20]: 85%

CCc1c(C(=O)Nc2cc(S(=O)(=O)N(CC)CC)ccc2O)[nH]c(C)c1C(C)=O
Kd [21]: 237 nM
inhibition of growth at 10 µM [22]: 65%

Cc1nn(C2CC2)c2c1[C@@H](c1ccc(Cl)cc1)N(c1cc(C)c3nnc(C)n3n1)C2=O
IC50 [1]: < 11 nM

CC[C@@H]1C(=O)Nc2ccc(-c3c(C)noc3C)cc2N1Cc1ccccc1
IC50 [23]: 70 nM
IC50 [24]: 258 nM

Cn1cc2c3c(c[nH]c(=O)c31)CN(c1ccc(F)cc1F)c1ccc(CS(C)(=O)=O)cc1-2
IC50 [25]: 2 nM
inhibition in vivo at 5 mg/kg [26]: 81%
EC50 [27]: 16 nM
IC50 [28]: 1.8 nM

Cc1ncsc1-c1ccc([C@H](C)NC(=O)[C@@H]2C[C@@H](O)CN2C(=O)[C@@H](NC(=O)COCCCOCCNC(=O)C[C@@H]2N=C(c3ccc(Cl)cc3)c3c(sc(C)c3C)-n3c(C)nnc32)C(C)(C)C)cc1
IC50 [29]: 17 nM
inhibition in vivo at 30 mg/kg [30]: 60%
IC50 [31]: 142 nM

Cn1cc2c3c(c[nH]c(=O)c31)CN(c1ccccn1)c1ccc(CS(C)(=O)=O)cc1-2
IC50 [25]: 2.1 nM
inhibition in vivo at 2.5 mg/kg [32]: 79%
EC50 [27]: 16 nM
IC50 [28]: 1.1 nM

CC(=O)N1c2ccc(-c3ccc(-c4cnn(C5CC5)c4)c(OC[C@H]4CC4(F)F)c3)cc2CC[C@H]1C
IC50 [33]: < 100 nM
IC50 [34]: < 50 nM

COc1ccc2c([nH]c3nc(C)nc(-c4ccnc5ccccc45)c32)c1-c1c(C)noc1C
bioavailability [35]: 93%
IC50 [36]: 53 nM
IC50 [14]: 26 nM
Ki [37]: 1.4 nM
Ki [38]: 8.2 nM
Activity [39]: >80%

COc1ccc2c(ncc3nc(C4CCOCC4)n([C@H](C)COC(F)F)c32)c1-c1c(C)noc1C
IC50 [7]: 10 to 21 nM

Cc1noc(C)c1-c1cnc2c(-c3ccc(C(=O)O)cc3)cn([C@@H](C)c3ccccn3)c2c1 [PLX-51107]
IC50 [40]: 156 to 10000 nM
